Laboratory results: patent US10328077B2 (CELGENE CORPORATION, priority 2016, dated 2019)
Like-named read-outs stand apart in the source and are kept apart here.

Assays:
[1] = system: ST18 and FREM2 gene expression in MKL-1 or MS-1 tumors; test: qRT-PCR of candidate PD biomarker genes in hMCC xenografts (dose-response); assay type: in vivo, mice; settings: 1, 2.5, or 5 mg/kg PO BID×4.5, both models
Protocol: Female NSG mice bearing palpable hMCC MKL-1 and MS-1 tumors were randomized into four groups of three mice each. Three groups were orally administered Compund A as monotherapy at 1, 2.5, or 5 mg/kg on a twice daily dosing schedule for nine doses (BID×4.5). The fourth group was orally administered vehicle as a control on the BID schedule. Four hours after the last dosing, tumors were collected into RNAlater and stored frozen.
Total RNA was eluted in RNase-free water and analyzed by qRT-PCR.

[2] = Beagle, dog, in vivo, po
in vivo [3] = settings: Beagle, dog, po; for AUC(0-t): AUC0-96
[4] = Plasma protein binding, human
hERG potassium channel = hERG potassium channel (Homo sapiens (Human), UniProt Q12809)
muscarinic M1 receptor = muscarinic M1 receptor (Homo sapiens (Human), UniProt P11229); test: CEREP in vitro pharmacology panel, muscarinic M1 receptor
[5] = system: LXFS 573 SCLC patient-derived xenograft; test: LXFS 573 SCLC PDX model (monotherapy); assay type: in vivo, mice; settings: for % TGI / TGI: Day 28
in vivo [6] = settings: Crl:CD1(ICR), mouse, plasma, po, 15 mg/kg
[7] = system: LU1480 SCLC patient-derived xenograft; test: LU1480 HuPrime SCLC PDX model; assay type: in vivo, mice
[8] = Metabolism in cryopreserved primary hepatocytes; assay type: in vitro ADME; settings: male mouse, rat, dog, monkey; mixed gender human
CYP3A4 mRNA = test: CYP induction in cryopreserved human hepatocytes, CYP3A4; assay type: in vitro ADME; settings: 0.03 to 10 μM, up to 3 days
CYP1A2 mRNA = test: CYP induction in cryopreserved human hepatocytes, CYP1A2; assay type: in vitro ADME; settings: 0.03 to 10 μM, up to 3 days
[9] = Pharmacokinetics after IV and oral dose, mice; assay type: in vivo, CD-1 mice; settings: mouse
[10] = Exploratory toxicity study in mice; assay type: in vivo, CD-1 mice; settings: for reduction in neutrophil counts: 60 mg/kg/dose QOD
From the text: Additional animals were included for TK evaluation.

CYP2D6 = CYP2D6 (Homo sapiens (Human), UniProt P10635); test: CYP inhibition in pooled human liver microsomes, CYP2D6; assay type: in vitro ADME; settings: up to 50 μM
[11] = Pharmacokinetics after IV and oral dose, rats; assay type: in vivo, Sprague Dawley rats; settings: for half-life: read-out: t1/2, z (converted)
[12] = Predicted human pharmacokinetics (allometric scaling)
[13] = CD-1, plasma, female, single IV dose 5 mg
[14] = CD-1, plasma, female, single oral dose 10 mg base/kg
[15] = Sprague Dawley, plasma, rat, female, single IV dose 5 mg
[16] = Sprague Dawley, plasma, rat, female, single oral dose 5 mg base/kg
[17] = Sprague Dawley, plasma, rat, female, single oral dose 15 mg base/kg
[18] = Sprague Dawley, plasma, rat, female, single oral dose 50 mg base/kg

muscarinic M1 receptor, sequence (P11229 whole entry): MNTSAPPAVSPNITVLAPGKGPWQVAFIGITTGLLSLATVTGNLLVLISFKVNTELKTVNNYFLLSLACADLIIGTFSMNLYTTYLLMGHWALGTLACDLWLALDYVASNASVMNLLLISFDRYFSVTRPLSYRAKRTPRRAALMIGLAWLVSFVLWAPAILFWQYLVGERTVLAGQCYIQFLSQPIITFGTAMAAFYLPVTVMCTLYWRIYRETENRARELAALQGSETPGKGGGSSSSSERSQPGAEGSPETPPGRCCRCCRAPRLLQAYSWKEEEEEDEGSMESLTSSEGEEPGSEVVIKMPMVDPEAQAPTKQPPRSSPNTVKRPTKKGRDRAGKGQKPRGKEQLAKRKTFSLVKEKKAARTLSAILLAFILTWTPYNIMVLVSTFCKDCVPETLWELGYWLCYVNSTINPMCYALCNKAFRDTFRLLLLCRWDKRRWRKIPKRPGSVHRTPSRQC
hERG potassium channel, sequence (Q12809 whole entry): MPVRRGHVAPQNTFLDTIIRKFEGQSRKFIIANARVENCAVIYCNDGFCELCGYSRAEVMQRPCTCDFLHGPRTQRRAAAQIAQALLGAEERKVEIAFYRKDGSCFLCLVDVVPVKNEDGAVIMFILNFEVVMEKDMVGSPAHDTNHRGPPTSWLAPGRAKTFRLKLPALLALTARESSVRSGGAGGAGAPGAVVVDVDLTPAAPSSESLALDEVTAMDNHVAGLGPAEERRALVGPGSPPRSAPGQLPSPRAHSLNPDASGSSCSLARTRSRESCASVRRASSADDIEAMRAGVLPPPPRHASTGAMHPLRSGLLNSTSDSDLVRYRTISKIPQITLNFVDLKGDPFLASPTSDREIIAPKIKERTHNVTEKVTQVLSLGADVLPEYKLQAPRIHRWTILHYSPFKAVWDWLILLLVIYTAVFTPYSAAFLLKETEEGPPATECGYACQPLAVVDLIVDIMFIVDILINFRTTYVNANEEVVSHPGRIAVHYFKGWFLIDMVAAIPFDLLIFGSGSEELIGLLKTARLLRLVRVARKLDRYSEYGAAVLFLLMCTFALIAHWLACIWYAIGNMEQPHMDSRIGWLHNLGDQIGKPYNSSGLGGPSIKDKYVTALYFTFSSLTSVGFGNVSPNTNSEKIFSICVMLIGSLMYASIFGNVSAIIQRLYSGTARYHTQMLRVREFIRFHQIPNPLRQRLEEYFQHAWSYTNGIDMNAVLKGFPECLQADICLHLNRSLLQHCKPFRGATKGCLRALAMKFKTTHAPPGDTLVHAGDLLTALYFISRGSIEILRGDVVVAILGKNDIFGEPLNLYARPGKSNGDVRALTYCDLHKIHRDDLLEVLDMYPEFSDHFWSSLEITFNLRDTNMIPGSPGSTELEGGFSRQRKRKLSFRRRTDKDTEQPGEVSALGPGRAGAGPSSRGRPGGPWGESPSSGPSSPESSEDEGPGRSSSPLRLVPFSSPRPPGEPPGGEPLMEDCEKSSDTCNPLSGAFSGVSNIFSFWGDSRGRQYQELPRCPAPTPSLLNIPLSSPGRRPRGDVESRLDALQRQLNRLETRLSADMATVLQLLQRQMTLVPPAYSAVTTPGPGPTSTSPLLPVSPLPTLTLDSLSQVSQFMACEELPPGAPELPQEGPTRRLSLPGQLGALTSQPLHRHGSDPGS
CYP2D6, sequence (P10635 whole entry): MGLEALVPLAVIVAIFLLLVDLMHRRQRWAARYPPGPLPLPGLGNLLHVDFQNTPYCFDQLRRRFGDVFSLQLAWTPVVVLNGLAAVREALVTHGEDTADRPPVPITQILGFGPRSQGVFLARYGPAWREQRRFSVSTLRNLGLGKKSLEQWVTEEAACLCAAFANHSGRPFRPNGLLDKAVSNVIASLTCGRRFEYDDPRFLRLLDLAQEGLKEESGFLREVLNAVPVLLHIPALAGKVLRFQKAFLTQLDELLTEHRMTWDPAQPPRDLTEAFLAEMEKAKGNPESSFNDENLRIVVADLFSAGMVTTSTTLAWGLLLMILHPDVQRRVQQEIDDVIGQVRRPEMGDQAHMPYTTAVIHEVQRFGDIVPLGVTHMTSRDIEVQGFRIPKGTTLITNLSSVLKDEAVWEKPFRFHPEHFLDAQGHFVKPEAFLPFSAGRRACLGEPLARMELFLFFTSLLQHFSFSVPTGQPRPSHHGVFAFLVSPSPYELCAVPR

SMILES: COc1ccc(-c2c(-c3ccc(C#N)c(F)c3)nc(N3CCC(N)CC3)n(C)c2=O)cc1F [Compound A, 4-[2-(4-amino-piperidin-1-yl)-5-(3-fluoro-4-methoxy-phenyl)-1-methyl-6-oxo-1,6-dihydro-pyrimidin-4-yl]-2-fluoro-benzonitrile]
- ST18 and FREM2 change in gene expression in vivo [1]: ≥ 2 fold
- AUC0-96 ([2]; female): 127 ng·h/mL
- Cmax ([2]; female): 5.77 ng/mL
- AUC0-96 ([2]; female, 0.25 mg/kg): 272 ng·h/mL
- Cmax ([2]; female, 0.25 mg/kg): 11.5 ng/mL
- AUC0-96 ([2]; female, 0.5 mg/kg): 618 ng·h/mL
- AUC0-96 ([2]; male): 114 ng·h/mL
- Cmax ([2]; male): 5.81 ng/mL
- AUC0-96 ([2]; male, 0.25 mg/kg): 302 ng·h/mL
- Cmax ([2]; male, 0.25 mg/kg): 10.5 ng/mL
- AUC0-96 ([2]; male, 0.5 mg/kg): 653 ng·h/mL
- AUC(0-t) (in vivo [3]; both, 0.125 mg/kg): 127 ng·h/mL
- Cmax (in vivo [3]; both, 0.125 mg/kg, Cmax): 5.26 ng/mL
- Cmax (in vivo [3]; both, 0.125 mg/kg, combined Day 15 mean Cmax): 5.26 ng/mL
- Cmax (in vivo [3]; both, 0.25 mg/kg, combined Day 15 mean Cmax): 11 ng/mL
- Cmax (in vivo [3]; both, 0.5 mg/kg, combined Day 15 mean Cmax): 22 ng/mL
- AUC(0-t) (in vivo [3]; both): 120 ng·h/mL
- Cmax (in vivo [3]; both, Cmax): 5.79 ng/mL
- AUC(0-t) (in vivo [3]; female, 0.25 mg/kg): 343 ng·h/mL
- Cmax (in vivo [3]; female, 0.25 mg/kg, Cmax): 12.1 ng/mL
- AUC(0-t) (in vivo [3]; female, 0.5 mg/kg): 729 ng·h/mL
- Cmax (in vivo [3]; female, 0.5 mg/kg, Cmax): 26.6 ng/mL
- AUC(0-t) (in vivo [3]; female): 141 ng·h/mL
- AUC(0-t) (in vivo [3]; male, 0.25 mg/kg): 335 ng·h/mL
- Cmax (in vivo [3]; male, 0.25 mg/kg, Cmax): 11.9 ng/mL
- AUC(0-t) (in vivo [3]; male, 0.5 mg/kg): 762 ng·h/mL
- Cmax (in vivo [3]; male, 0.5 mg/kg, Cmax): 24 ng/mL
- AUC(0-t) (in vivo [3]; male): 107 ng·h/mL
- bound to plasma proteins [4]: 83%
- Hill coefficient (hERG potassium channel): 1.2
- Ki (muscarinic M1 receptor): 1600 nM
- inhibition at 10 µM (muscarinic M1 receptor; read-out: inhibition of ligand binding): 76%
- Median Tumor Volume Day 28 ([5]; 5 mg base/kg PO QDx28): 308.3 mm^3
- Median Tumor Volume Diff. (Day 28 - Day 0) ([5]; 5 mg base/kg PO QDx28): 199.9 mm^3
- % TGI ([5]; 5 mg base/kg PO QDx28): 78%
- TGI ([5]; 5 mg base/kg oral): 78%
- Median Tumor Volume Day 28 ([5]; 7.5 mg base/kg PO QDx28): 496.6 mm^3
- Median Tumor Volume Diff. (Day 28 - Day 0) ([5]; 7.5 mg base/kg PO QDx28): 383.4 mm^3
- Median Tumor Volume Day 28 ([5]; 10 mg base/kg PO QDx28): 376.8 mm^3
- Median Tumor Volume Diff. (Day 28 - Day 0) ([5]; 10 mg base/kg PO QDx28): 263.0 mm^3
- % TGI ([5]; 10 mg base/kg PO QDx28): 71%
- TGI ([5]; 10 mg/kg oral): 71%
- mean body weight loss ([5]; mouse, in vivo): ≤ 3%
- AUC(0-t) (in vivo [6]; female): 9680 ng·h/mL
- Cmax (in vivo [6]; female): 850 ng/mL
- AUC(0-t) (in vivo [6]; male): 7960 ng·h/mL
- Cmax (in vivo [6]; male): 628 ng/mL
- Median Tumor Volume Day 21 ([7]; 5 mg base/kg PO QDx21): 490.1 mm^3
- Median Tumor Volume Diff. (Day 21 - Day 1) ([7]; 5 mg base/kg PO QDx21): 400.6 mm^3
- Median Tumor Volume Day 21 ([7]; 10 mg base/kg PO QDx21): 321.4 mm^3
- Median Tumor Volume Diff. (Day 21 - Day 1) ([7]; 10 mg base/kg PO QDx21): 234.3 mm^3
- % TGI ([7]; 10 mg base/kg PO QDx21, Day 21): 72%
- TGI ([7]; 10 mg base/kg oral for 21 days): 72%
- metabolic stability in hepatocytes [8]: greater in rat and dog followed by human and monkeys while being least stable in mouse hepatocytes
- increase in CYP3A4 mRNA over vehicle control (CYP3A4 mRNA): < 2 fold
- increase in CYP1A2 mRNA over vehicle control (CYP1A2 mRNA): < 2 fold
- half-life ([9]; CD-1 (mice), Sprague Dawley (rats), plasma, IV, rodents (mice, rats), read-out: half-life): 2 to 4 h
- Tmax ([9]; CD-1, Sprague Dawley, Beagle, plasma, oral, across mice, rats, dogs, monkeys, read-out: median tmax): 0.5 to 6 h
- bioavailability ([9]; CD-1, Sprague Dawley, plasma, po, rodents, read-out: oral bioavailability): 28 to 74%
- AUC(0-inf) [9, 13]: 2660 ng·h/mL
- AUC(0-t) [9, 13]: 2220 ng·h/mL
- clearance [9, 13]: 32 mL/min/kg
- Vd ([9]; CD-1, plasma, female, single IV dose 5 mg, read-out: Vss): 7.51 L/kg
- half-life ([9]; CD-1, plasma, female, single IV dose 5 mg, read-out: t1/2, z (converted)): 3.8 h
- AUC(0-t) [9, 14]: 2010 ng·h/mL
- Cmax [9, 14]: 510 ng/mL
- bioavailability ([9]; CD-1, plasma, female, single oral dose 10 mg base/kg, read-out: % F): 38%
- half-life ([9]; CD-1, plasma, female, single oral dose 10 mg base/kg, read-out: t1/2, z (converted)): 1.7 h
- Tmax ([9]; CD-1, plasma, female, single oral dose 10 mg base/kg, read-out: tmax): 0.5 h
- increase in platelets on Day 8 ([10]; 10 mg/kg/day 5 days on/2 days off, vs end of first dosing period): > 2 fold
- reduction in neutrophil counts ([10]; females): 66%
- reduction in neutrophil counts ([10]; males): 83%
- increased spleen weights ([10]; 30 or 60 mg/kg/dose 5 days on/2 days off): up to 2 fold
- greatest reduction in neutrophil counts ([10]; 5 days on/2 days off schedule, vs concurrent controls and pre-study values): approximately 90%
- circulating platelets ([10]; all dose levels, end of study): reduced
- direct inhibition of CYP2D6 (CYP2D6): little to no direct inhibitory effect
- systemic clearance ([11]; IV, rats (greater than liver blood flow)): high
- AUC(0-inf) [11, 15]: 733 ng·h/mL
- AUC(0-t) [11, 15]: 680 ng·h/mL
- clearance [11, 15]: 115 mL/min/kg
- Vd ([11]; Sprague Dawley, plasma, rat, female, single IV dose 5 mg, mean (SD), read-out: Vss): 26.2 L/kg
- half-life [11, 15]: 3.6 h
- AUC(0-t) [11, 16]: 222 ng·h/mL
- Cmax [11, 16]: 47 ng/mL
- Tmax [11, 16]: 2 h
- bioavailability [11, 16]: 33%
- half-life [11, 16]: 3 h
- AUC(0-t) [11, 17]: 570 ng·h/mL
- Cmax [11, 17]: 123 ng/mL
- Tmax [11, 17]: 2 h
- bioavailability [11, 17]: 28%
- half-life [11, 17]: 2.9 h
- AUC(0-t) [11, 18]: 4650 ng·h/mL
- Cmax [11, 18]: 621 ng/mL
- Tmax [11, 18]: 6 h
- bioavailability [11, 18]: 74%
- half-life [11, 18]: 3 h
- predicted steady state systemic exposure (AUCt) ([12]; 1.25 mg oral QW, 60-kg human, 80% oral bioavailability assumed): 29 ng·h/mL
- predicted clearance ([12]; allometric scaling): 9.4 mL/min/kg
- predicted volume of distribution ([12]; allometric scaling): 17.6 L/kg
